The values that follow come from PubChem BioAssay (NCI).

Several values for one entry are separate records, joined by “and”; a condition that tells them apart may be missing. Equal values may be shown once.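 1) Cells in 96-well plates. 2) Compound, 48 h, 5 concentrations. 3) Linear interpolation between surrounding doses. 4) Unreached endpoint = highest concentration. GI50 marks 50% less growth. Definition used: TGI = concentration required for complete inhibition of growth.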 Where only a bound is given, the exact number is not on record here.

Test systems include MDA-MB-231 breast; NCI-H23 lung; SNB-75 CNS; EKVX NSCLC; OVCAR-3 ovarian; MALME-3M melanoma; SF-295 CNS; HL-60(TB) leukemia; HCT-116 colon; MOLT-4 leukemia.
Holding throughout (assay): NCI anticancer screen, dose series, 48 h

Regarding `COc1cc(O)c(C(=O)/C=C/c2ccc(O)cc2)c(O)c1[C@@H]1C[C@H](CCc2ccc(O)cc2)O[C@H](c2ccc(O)cc2)C1`, the GI50 with MDA-MB-231 breast is 2.26 µM; with NCI-H23 lung it was 3.14 µM; in the assay with SNB-75 CNS it was 2.59 µM; in the assay on EKVX NSCLC it was 4.35 µM; in the assay with OVCAR-3 ovarian, 4.18 µM; in the assay on MALME-3M melanoma, 5.46 µM. In addition, the GI50 with SF-295 CNS is 4.36 µM; in the assay with HL-60(TB) leukemia, 2.02 µM; with HCT-116 colon it was 3.74 µM; in the assay with MOLT-4 leukemia it was 1.95 µM. In addition, the TGI in the assay on MDA-MB-231 breast was 6.32 µM; in the assay on NCI-H23 lung, 9.3 µM; in the assay on SNB-75 CNS it was 7.44 µM; with EKVX NSCLC it was 15.8 µM; in the assay on OVCAR-3 ovarian, 21 µM; in the assay on MALME-3M melanoma it was 28.7 µM. Moreover, the TGI stood at 17.8 µM in the assay on SF-295 CNS, 3.91 µM in the assay with HL-60(TB) leukemia, 11.1 µM with HCT-116 colon and 5.43 µM in the assay with MOLT-4 leukemia.
Turning to `NC(=O)c1ccc2nc(-c3ccc(Oc4ccc(Cl)cc4)cc3)[nH]c2c1`, the GI50 in the assay on MDA-MB-231 breast is > 75 µM and 18.8 µM; in the assay on NCI-H23 lung, 67.5 µM and 13.5 µM; in the assay on SNB-75 CNS it was 37 µM and 18.3 µM; with EKVX NSCLC, greater than 75 µM; in the assay on OVCAR-3 ovarian it was 20.8 µM and 14.4 µM; in the assay on MALME-3M melanoma, 32.4 µM and 18.2 µM. Also, the GI50 in the assay with SF-295 CNS is greater than 75 µM; in the assay with HL-60(TB) leukemia, 12.4 µM and 17.3 µM; in the assay with HCT-116 colon it was 8.14 µM and 12.3 µM; in the assay with MOLT-4 leukemia, 28.6 µM and 11.5 µM. For the same molecule, the TGI is > 75 µM and 36.3 µM with MDA-MB-231 breast; 75 µM and 32.7 µM in the assay on NCI-H23 lung; 75 µM and 38.5 µM in the assay with SNB-75 CNS; greater than 75 µM with EKVX NSCLC; 75 µM and 34.8 µM with OVCAR-3 ovarian; 75 µM and 33.6 µM in the assay with MALME-3M melanoma. Also, the TGI in the assay with SF-295 CNS was greater than 75 µM; in the assay on HL-60(TB) leukemia, 58.7 µM and 41.2 µM; in the assay on HCT-116 colon, 75 µM and 33.4 µM; with MOLT-4 leukemia, 75 µM and 33.3 µM.
With `Cn1ccnc1C(=O)/C=C/c1ccccc1`, the GI50 in the assay with MDA-MB-231 breast was 3.39 µM; in the assay with NCI-H23 lung, 3.76 µM; in the assay on SNB-75 CNS it was 2.55 µM; in the assay with EKVX NSCLC it was 11.6 µM; with OVCAR-3 ovarian it was 3.22 µM; with MALME-3M melanoma it was 12.3 µM. Also, the GI50 in the assay on SF-295 CNS is 11.4 µM; in the assay with HL-60(TB) leukemia it was 2.79 µM; with HCT-116 colon it was 2.72 µM; with MOLT-4 leukemia it was 3.35 µM. Moreover, the TGI in the assay on MDA-MB-231 breast turned out to be 16.8 µM; with NCI-H23 lung, 25.4 µM; in the assay on SNB-75 CNS, 6.54 µM; with EKVX NSCLC, 25.1 µM; with OVCAR-3 ovarian it was 8.5 µM; in the assay on MALME-3M melanoma, 27.9 µM. Besides, the TGI in the assay with SF-295 CNS is 29.1 µM; with HL-60(TB) leukemia, 7.73 µM; in the assay with HCT-116 colon, 12.2 µM; with MOLT-4 leukemia it was 15.6 µM.
`Cc1cccc2c(=O)c3c(sc12)c(NCCNCCO)nc1ccccc13`: the GI50 with MDA-MB-231 breast is 1.23 µM; with NCI-H23 lung, 1.58 µM; in the assay with SNB-75 CNS, 1.15 µM; in the assay on EKVX NSCLC, 1.5 µM; with OVCAR-3 ovarian, 1.55 µM; in the assay with MALME-3M melanoma it was 1.65 µM. Moreover, the GI50 in the assay on SF-295 CNS was 1.73 µM; in the assay with HL-60(TB) leukemia it was 1.89 µM; in the assay with HCT-116 colon, 1.35 µM; with MOLT-4 leukemia, 1.53 µM. The TGI with MDA-MB-231 breast stood at 2.62 µM; in the assay with NCI-H23 lung, 3.04 µM; with SNB-75 CNS, 2.43 µM; with EKVX NSCLC, 2.92 µM; in the assay on OVCAR-3 ovarian it was 2.99 µM; in the assay with MALME-3M melanoma it was 3.18 µM. Also, the TGI stood at 3.21 µM in the assay with SF-295 CNS, 3.59 µM in the assay on HL-60(TB) leukemia, 2.72 µM in the assay with HCT-116 colon and 3.21 µM in the assay with MOLT-4 leukemia.
For the molecule `COc1ccc2c(c1)n([O-])c1ccccc1[n+]2=O`, the TGI is greater than 100 µM in the assay with MDA-MB-231 breast; > 100 µM and 91.4 µM with NCI-H23 lung; greater than 100 µM in the assay with SNB-75 CNS; > 100 µM and 55.1 µM in the assay with EKVX NSCLC; > 100 µM and 58.7 µM with OVCAR-3 ovarian; > 100 µM and 69.9 µM in the assay on MALME-3M melanoma. Also, the TGI with SF-295 CNS was > 100 µM and 48.6 µM; in the assay on HL-60(TB) leukemia, greater than 100 µM; in the assay on HCT-116 colon, greater than 100 µM; in the assay with MOLT-4 leukemia it was greater than 100 µM. Moreover, the GI50 in the assay with HL-60(TB) leukemia was 45.2 µM and 4.54 µM.
For `COc1ccc(/C(C#N)=C/c2ccc(OC)c(OC)c2)cc1`, the TGI in the assay on MDA-MB-231 breast, with NCI-H23 lung, with SNB-75 CNS, with EKVX NSCLC, in the assay with OVCAR-3 ovarian and in the assay on MALME-3M melanoma was greater than 100 µM in each case. In addition, the TGI with SF-295 CNS, in the assay with HL-60(TB) leukemia, in the assay on HCT-116 colon and in the assay with MOLT-4 leukemia was greater than 100 µM each time.
In the case of `Nc1nc(-c2ccccc2)nc(N)c1N=O`, the GI50 in the assay on MDA-MB-231 breast is 12.6 µM; with NCI-H23 lung, 14.6 µM; with SNB-75 CNS it was 5.21 µM; with EKVX NSCLC, 20.1 µM; with OVCAR-3 ovarian, 4.17 µM; in the assay on MALME-3M melanoma, 6.71 µM. Besides, the GI50 in the assay on SF-295 CNS was 18.1 µM; in the assay on HL-60(TB) leukemia it was 19.2 µM; in the assay with HCT-116 colon, 4.12 µM; in the assay on MOLT-4 leukemia it was 17.4 µM. For the same molecule, the TGI in the assay with MDA-MB-231 breast was 28.9 µM; in the assay on NCI-H23 lung, 41.9 µM; in the assay on SNB-75 CNS it was 19.1 µM; in the assay with EKVX NSCLC, greater than 100 µM; in the assay on OVCAR-3 ovarian, 14 µM; in the assay on MALME-3M melanoma it was 22.9 µM. Also, the TGI with SF-295 CNS was 52.9 µM; in the assay with HL-60(TB) leukemia, 88.9 µM; in the assay on HCT-116 colon, 17.8 µM; with MOLT-4 leukemia it was greater than 100 µM.
Consider `O=C(NP(=O)(N1CC1)N1CC1)c1cc(I)ccc1I`, for which the TGI in the assay with MDA-MB-231 breast is greater than 100 µM; with NCI-H23 lung, 56.1 µM; in the assay with SNB-75 CNS it was 79.1 µM; in the assay on EKVX NSCLC, greater than 100 µM; in the assay on OVCAR-3 ovarian, 86.6 µM; in the assay on MALME-3M melanoma, greater than 92 µM. In addition, the TGI is greater than 100 µM with SF-295 CNS, greater than 96.4 µM in the assay on HL-60(TB) leukemia, greater than 100 µM in the assay with HCT-116 colon and greater than 100 µM with MOLT-4 leukemia.
